Reference: patent US11099176B2 (priority 2015, dated 2021)

How the values were obtained:
Format in all cases: binding
[1] = system: Marinobacter sp. msLacBP6 variant 187C, F68M, SEQ ID NO: 50, Acrylodan conjugate; experiment: Fluorescence titration of conjugate (affinity tuning); design: key to appKd (alanine): nb: no binding
[2] = system: Marinobacter sp. msLacBP6 variant 187C, F68M, SEQ ID NO: 50, Badan conjugate; experiment: as above; design: key to appKd (alanine): nb: no binding
[3] = system: Marinobacter sp. msLacBP6 variant 187C, F68L, SEQ ID NO: 49, Acrylodan conjugate; experiment: as above; design: key to appKd (alanine): nb: no binding
[4] = system: Marinobacter sp. msLacBP6 variant 187C, F68L, SEQ ID NO: 49, Badan conjugate; experiment: as above; design: key to appKd (alanine): nb: no binding
[5] = system: Marinobacter sp. msLacBP6 variant 187C, L70I, SEQ ID NO: 52, Acrylodan conjugate; experiment: as above; design: key to appKd (alanine): nb: no binding
[6] = system: Marinobacter sp. msLacBP6 variant 187C, L70I, SEQ ID NO: 52, Badan conjugate; experiment: as above; design: key to appKd (alanine): nb: no binding
[7] = system: Marinobacter sp. msLacBP6 variant 187C, D220E, SEQ ID NO: 56, Acrylodan conjugate; experiment: as above; design: key to appKd (alanine): nb: no binding
[8] = system: Marinobacter sp. msLacBP6 variant 187C, D220E, SEQ ID NO: 56, Badan conjugate; experiment: as above; design: key to appKd (alanine): nb: no binding
[9] = system: Marinobacter sp. msLacBP6 conjugates (variants of Table 5); experiment: Affinity summary of msLacBP6 single-cysteine conjugates
[10] = system: Marinobacter sp. msLacBP6 187C mutants (variants of Table 7); experiment: Affinity summary of msLacBP6 187C affinity-tuning mutants; conditions: all mutants
Text: In the PCS we mutated F68 (F98 in ttLacBP1) and D220 (D250 in ttLacBP1). […] It could therefore be considered part of a secondary complementary surface layer (SCS). In the interface we mutated L70 (L100 in ttLacBP1), which is located at the periphery of the lactate-binding site, and forms a contact from the N- to the C-terminal domain across the inter-domain interface.
Both PCS and SCS mutations perturbed the spectral shapes of the lactate-mediated responses. […] These affinity-tuned sensors therefore provide a suitable set for clinical chemistry applications.

Q: How did the “appKd (alanine)” value [1] turn out when `C[C@H](N)C(=O)O` [L-alanine] was run?
A: n/b

Q: And the “appKd (alanine)” value [2]?
A: n/b

Q: And the “appKd (alanine)” value [3]?
A: n/b

Q: And the “appKd (alanine)” value [4]?
A: n/b

Q: And the “appKd (alanine)” value [5]?
A: n/b

Q: And the “appKd (alanine)” value [6]?
A: n/b

Q: And the “appKd (alanine)” value [7]?
A: n/b

Q: And the “appKd (alanine)” value [8]?
A: n/b

Q: And the “binding to L-alanine” value [9]?
A: no binding

Q: What about the “binding to L-alanine” value [10] of the same compound?
A: None of the mutants bound L-alanine
